Source: patent US8084457B2, “Pharmaceutically active 4,6-disubstituted aminopyrimidine derivatives as modulators of protein kinases” (Lead Discovery Center GmbH, priority 2003, dated 2011)

Key:
Format in all cases: biochemical
[1] = biological target: CDK4 (Homo sapiens, UniProt P11802); assay: Kinase assay, CDK4 activity range (Table 2)
[2] = biological target: T1, CDK2/CyclinA (Homo sapiens, UniProt P24941); assay: Kinase assay determining CDK2/CyclinA activity; details: read-out: CDK2 (activity range)
T1 construct: purchased Proqinase
Method: Kinase Assays Determining CDK2/CyclinA and CDK5/p35 Activity:
Kinase assays were performed as described by the manufacturers recommendations (Proqinase for CDK2/CyclinA and Upsate for CDK5/p35).

[3] = biological target: T2, CDK9/Cyclin T1 (Homo sapiens, UniProt P50750); assay: Kinase assay using CDK9/Cyclin T1; details: read-out: CDK9 (activity range)
T2 construct: made in house; host or cells: HEK293 cells, recombinant adenovirus
Method in brief: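 Recombinant CDK9/Cyclin T1 produced via adenoviral expression from gateway-cloned cDNAs. Kinase reaction run essentially per a published protocol.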

T2 sequence (P50750 whole entry): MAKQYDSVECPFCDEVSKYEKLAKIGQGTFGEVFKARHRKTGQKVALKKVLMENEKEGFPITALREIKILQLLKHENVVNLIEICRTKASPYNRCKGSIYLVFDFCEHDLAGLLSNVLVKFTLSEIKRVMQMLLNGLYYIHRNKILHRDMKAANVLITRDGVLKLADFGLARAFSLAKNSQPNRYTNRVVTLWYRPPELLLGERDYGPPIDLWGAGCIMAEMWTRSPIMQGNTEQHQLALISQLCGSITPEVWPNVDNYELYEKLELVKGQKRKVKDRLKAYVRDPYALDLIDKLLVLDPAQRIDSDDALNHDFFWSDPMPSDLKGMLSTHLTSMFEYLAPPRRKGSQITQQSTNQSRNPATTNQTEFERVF
T2 sequence (O60563 whole entry partner): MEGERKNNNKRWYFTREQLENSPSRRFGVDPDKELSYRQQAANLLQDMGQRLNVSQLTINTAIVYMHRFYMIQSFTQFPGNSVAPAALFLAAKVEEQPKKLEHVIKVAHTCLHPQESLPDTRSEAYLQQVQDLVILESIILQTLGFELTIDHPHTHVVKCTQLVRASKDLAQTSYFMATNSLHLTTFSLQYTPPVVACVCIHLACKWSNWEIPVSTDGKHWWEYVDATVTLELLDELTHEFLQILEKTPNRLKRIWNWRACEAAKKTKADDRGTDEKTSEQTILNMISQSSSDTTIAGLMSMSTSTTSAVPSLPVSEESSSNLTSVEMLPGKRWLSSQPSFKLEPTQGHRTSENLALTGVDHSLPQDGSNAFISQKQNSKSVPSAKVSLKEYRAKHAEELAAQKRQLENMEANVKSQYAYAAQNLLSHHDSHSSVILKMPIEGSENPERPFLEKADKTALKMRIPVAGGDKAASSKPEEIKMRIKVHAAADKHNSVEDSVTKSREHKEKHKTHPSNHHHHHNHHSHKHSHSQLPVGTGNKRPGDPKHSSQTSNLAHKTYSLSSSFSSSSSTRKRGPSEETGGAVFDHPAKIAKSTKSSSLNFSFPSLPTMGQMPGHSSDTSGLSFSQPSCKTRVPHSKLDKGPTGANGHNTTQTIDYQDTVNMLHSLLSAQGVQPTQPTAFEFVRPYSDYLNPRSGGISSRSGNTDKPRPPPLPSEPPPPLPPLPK
Sequence of CDK4 (P11802 whole entry, species assumed): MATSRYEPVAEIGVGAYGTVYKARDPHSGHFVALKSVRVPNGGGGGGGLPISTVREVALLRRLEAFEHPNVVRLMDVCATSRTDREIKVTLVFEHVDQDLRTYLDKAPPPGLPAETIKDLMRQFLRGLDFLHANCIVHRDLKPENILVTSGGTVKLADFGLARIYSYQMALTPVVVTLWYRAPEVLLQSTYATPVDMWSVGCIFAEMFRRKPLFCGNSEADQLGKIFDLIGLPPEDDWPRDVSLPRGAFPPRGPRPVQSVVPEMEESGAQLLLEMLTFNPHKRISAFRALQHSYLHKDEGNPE
Sequence of CDK4 (P24385 whole entry partner, species assumed): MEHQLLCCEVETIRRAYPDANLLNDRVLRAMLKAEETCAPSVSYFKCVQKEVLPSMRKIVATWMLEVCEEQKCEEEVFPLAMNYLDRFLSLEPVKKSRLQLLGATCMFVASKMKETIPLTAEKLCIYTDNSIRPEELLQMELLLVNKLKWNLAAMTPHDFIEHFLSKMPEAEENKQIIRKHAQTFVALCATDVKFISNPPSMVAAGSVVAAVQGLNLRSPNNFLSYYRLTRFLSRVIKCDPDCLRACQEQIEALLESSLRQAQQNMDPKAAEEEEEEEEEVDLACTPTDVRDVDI

IC50 [1] [µM]	IC50 [2] [µM]	IC50 [3] [µM]	Compound
1 to 10	1 to 10	0.001 to 1	COc1ccccc1-c1cc(Nc2ccc(C(=O)N[C@@H]3CCCC[C@H]3N)cc2)ncn1 (racemic) [(83)]
1 to 10	1 to 10	0.001 to 1	CC(C)Oc1ccccc1-c1cc(Nc2ccc(C(=O)N[C@@H]3CCCC[C@H]3N)cc2)ncn1 (racemic) [(199)]
0.001 to 1	0.001 to 1	0.001 to 1	COc1ccccc1-c1cc(Nc2ccc(N3CCCC3=O)cc2)ncn1 [(9)]
1 to 10	0.001 to 1	0.001 to 1	COc1ccccc1-c1cc(Nc2ccc(NC(C)=O)cc2)ncn1 [(10)]
10 to 250	0.001 to 1	0.001 to 1	COc1ccccc1-c1cc(Nc2ccc(C(N)=O)cc2)ncn1 [(14)]
1 to 10	0.001 to 1	0.001 to 1	COc1ccccc1-c1cc(Nc2ccc(N)cc2)ncn1 [(22)]
1 to 10	0.001 to 1	0.001 to 1	COc1ccccc1-c1cc(Nc2ccc(NS(C)(=O)=O)cc2)ncn1 [(33)]
1 to 10	1 to 10	0.001 to 1	COc1ccccc1-c1cc(Nc2ccc(NC(=O)CN(C)C)cc2)ncn1 [(46)]
0.001 to 1	1 to 10	0.001 to 1	COc1ccccc1-c1cc(Nc2ccc(NC(=O)CC3CCCCN3)cc2)ncn1 (stereo not drawn) [(59)]
1 to 10	1 to 10	0.001 to 1	CCN(CC)CCC(=O)Nc1ccc(Nc2cc(-c3ccccc3OC)ncn2)cc1 [(64)]
10 to 250	1 to 10	0.001 to 1	COc1ccccc1-c1cc(Nc2ccc(NC(=O)[C@@H]3Cc4ccccc4CN3)cc2)ncn1 [(65)]
1 to 10	1 to 10	0.001 to 1	COc1ccccc1-c1cc(Nc2ccc(NC(=O)C3(N)CCCCC3)cc2)ncn1 [(66)]
1 to 10	1 to 10	0.001 to 1	COc1ccccc1-c1cc(Nc2ccc(NC(=O)C3(N)CCCC3)cc2)ncn1 [(68)]
0.001 to 1	1 to 10	0.001 to 1	COc1ccccc1-c1cc(Nc2ccc(NC(=O)[C@H]3CCCCN3)cc2)ncn1 [(69)]
1 to 10	1 to 10	0.001 to 1	COc1ccccc1-c1cc(Nc2ccc(NC(=O)[C@@H](N)c3ccccc3)cc2)ncn1 [(81)]
1 to 10	1 to 10	0.001 to 1	CN[C@H](C(=O)Nc1ccc(Nc2cc(-c3ccccc3OC)ncn2)cc1)c1ccccc1 [(82)]
0.001 to 1	0.001 to 1	0.001 to 1	COc1ccccc1-c1cc(Nc2ccc(C(=O)NC3CCCNC3)cc2)ncn1 (stereo not drawn) [(86)]
1 to 10	1 to 10	0.001 to 1	COc1ccccc1-c1cc(Nc2ccc(NC(=O)C3CCCN(C)C3)cc2)ncn1 (stereo not drawn) [(87)]
1 to 10	1 to 10	0.001 to 1	COc1ccccc1-c1cc(Nc2ccc(NC(=O)C3CCN(C)CC3)cc2)ncn1 [(89)]
1 to 10	1 to 10	0.001 to 1	COc1ccccc1-c1cc(Nc2ccc(NC(=O)[C@H]3CCCN3)cc2)ncn1 [(91)]
1 to 10	0.001 to 1	0.001 to 1	NC(=O)c1ccc(Nc2cc(-c3ccccc3OCc3ccccc3)ncn2)cc1 [(95)]
0.001 to 1	1 to 10	0.001 to 1	COc1ccccc1-c1cc(Nc2ccc(NC(=O)CCN)cc2)ncn1 [(102)]
10 to 250	1 to 10	0.001 to 1	NCCCOc1ccccc1-c1cc(Nc2ccc(NC(=O)c3ccc(N)cc3)cc2)ncn1 [(103)]
10 to 250	1 to 10	0.001 to 1	CC(=O)Nc1cccc(-c2cc(Nc3ccc(C)c(NS(C)(=O)=O)c3)ncn2)c1 [(104)]

IC50 [1] [µM]	IC50 [2] [µM]	IC50 [3] [µM]	Compound
10 to 250	0.001 to 1	0.001 to 1	Cc1ccc(Nc2cc(-c3cccc(O)c3)ncn2)cc1NS(C)(=O)=O [(105)]
10 to 250	0.001 to 1	0.001 to 1	Cc1ccc(Nc2cc(-c3ccccc3)ncn2)cc1NS(C)(=O)=O [(106)]
10 to 250	10 to 250	10 to 250	Cc1ccc(Nc2cc(-c3cccc(C(F)(F)F)c3)ncn2)cc1NS(C)(=O)=O [(107)]
0.001 to 1	1 to 10	0.001 to 1	CNC(C)(C)C(=O)Nc1ccc(Nc2cc(-c3ccccc3OC)ncn2)cc1 [(118)]
1 to 10	0.001 to 1	0.001 to 1	COc1ccccc1-c1cc(Nc2cccc(N)c2)ncn1 [(124)]
1 to 10	0.001 to 1	0.001 to 1	COc1ccccc1-c1cc(Nc2cccc(NC(=O)[C@@H]3CCCCN3)c2)ncn1 [(128)]
1 to 10	1 to 10	0.001 to 1	CC[C@H](C)[C@H](N)C(=O)Nc1ccc(Nc2cc(-c3ccccc3OC)ncn2)cc1 [(140)]
1 to 10	1 to 10	0.001 to 1	COc1ccccc1-c1cc(Nc2ccc(NC(=O)[C@@H](N)C(C)C)cc2)ncn1 [(143)]
1 to 10		1 to 10	COc1ccccc1-c1cc(Nc2ccc(C(=O)N3CCOCC3)cc2)ncn1 [(147)]
10 to 250	0.001 to 1	0.001 to 1	COc1ccccc1-c1cc(Nc2cccc(S(N)(=O)=O)c2)ncn1 [(150)]
1 to 10		1 to 10	O=Cc1cccc(-c2cc(Nc3ccc(NC(=O)[C@@H]4CCCCN4)cc3)ncn2)c1 [(168)]
1 to 10	1 to 10	0.001 to 1	COc1ncccc1-c1cc(Nc2ccc(NC(=O)[C@@H]3CCCCN3)cc2)ncn1 [(171)]
	1 to 10	1 to 10	Cc1ccc(Nc2cc(-c3cccc(CO)c3)ncn2)cc1NS(C)(=O)=O [(183)]
	1 to 10	0.001 to 1	CCCCNS(=O)(=O)c1cccc(Nc2cc(-c3ccccc3OC)ncn2)c1 [(184)]
	0.001 to 1	0.001 to 1	COc1ccccc1-c1cc(Nc2cccc(S(C)(=O)=O)c2)ncn1 [(185)]
1 to 10	10 to 250	1 to 10	COc1cccc(-c2cc(Nc3ccc(NC(=O)[C@@H]4CCCCN4)cc3)ncn2)c1OC [(186)]
0.001 to 1	1 to 10	0.001 to 1	COc1ccc(-c2cc(Nc3ccc(NC(=O)[C@@H]4CCCCN4)cc3)ncn2)c(OC)c1 [(187)]
0.001 to 1	1 to 10	0.001 to 1	CC(C)Oc1ccccc1-c1cc(Nc2ccc(NC(=O)[C@@H]3CCCCN3)cc2)ncn1 [(188)]
0.001 to 1	1 to 10	0.001 to 1	CSc1ccccc1-c1cc(Nc2ccc(NC(=O)[C@@H]3CCCCN3)cc2)ncn1 [(189)]
1 to 10		1 to 10	O=C(Nc1ccc(Nc2cc(-c3ccccc3OC(F)(F)F)ncn2)cc1)[C@@H]1CCCCN1 [(190)]
	10 to 250	0.001 to 1	O=C(Nc1ccc(Nc2cc(-c3ccccc3Cl)ncn2)cc1)[C@@H]1CCCCN1 [(192)]
	1 to 10	0.001 to 1	Nc1cccc(-c2cc(Nc3cccc(S(N)(=O)=O)c3)ncn2)c1 [(214)]
	0.001 to 1	0.001 to 1	COc1ccc(-c2cc(Nc3cccc(S(N)(=O)=O)c3)ncn2)cc1 [Compound 215]

Compound	IC50 [1] [µM]	IC50 [2] [µM]	IC50 [3] [µM]
COc1ccccc1-c1cc(Nc2ccc(NC(=O)[C@@H]3CCCCN3)cc2)ncn1 [(30)]	0.001 to 1	1 to 10	0.001 to 1
